{"source": "patent US4440757A", "about": "“Pharmaceutical composition comprising derivative of aminobenzoic acid for regulating prostaglandin” (priority 1978, dated 1984)", "key": {"Ehrlich cancer cells": {"tested_on": "Ehrlich cancer cells", "assay": "PGE in Ehrlich tumour tissue and tumour proliferation (i.p.)", "type": "in vivo, female C57BL/6 mouse", "conditions": "100 mg/kg i.p. every other day, 14th day", "description": "Ehrlich cancer cells were transplanted subcutaneously to groups of female C57BL/6 mouse after 9 weeks of birth at a rate of 1×10^6 and while feeding the mice, the present substance, Specimen No. 7, was intraperitoneally administered to the mice every other day from the next day of the transplantation at a rate of 100 mg/kg. On 14th day of the transplantation, the mice were sacrificed with ether to extirpate the tumor tissue. After homogenizing the tumour tissue finely cut by scissors with the addition of 7 ml of methanol per gram of the tumour tissue at a temperature of 0° C., the homogenate was filtered with filter paper to obtain a filtrate. After adding 2 times by volume of chloroform to the filtrate, the mixture was well mixed and left for 30 min at 4° C. Then, the cooled mixture was subjected to the same procedures as in Example 11 to determine the content of PGE in the tumour tissue. The content of PGE in the tumour tissue was larger in the animal transplanted with the cancer cells and administered with the present substance than in the control transplanted with the same cancer cells but not administered with the present substance. This face gives an information concerning the participation of the present substance in the metabolism of PGs."}, "[1]": {"tested_on": "sarcoma induced by methylcholanthrene; 6-keto PGF1α", "assay": "Level of 6-keto PGF1α in plasma of sarcoma-bearing rats", "type": "in vivo, spontaneous hypertensive rats (SHR)", "conditions": "500 mg/kg/day i.p., 6 days", "description": "Cells of sarcoma induced by methylcholanthrene were transplanted on the back of a group of spontaneous hypertensive rats (SHR) subcutaneously at a rate of 1×10^6 cells/animal, and while feeding the rats, the present substance, Specimen No. 7, was daily administered intraperitoneally for consecutive 6 days from after 24 hours of the transplantation at a rate of 500 mg/kg/day. After 2 weeks of the ending of administration, whole blood was collected to obtain a fraction of plasma. The ether-extract of the plasma was separated by thin layer chromatography and after converting the extract into a methyloximesilyl derivative, the variation of the level 6-keto PGF1α in the extract was examined by gas-chromatography and masspectroscopy."}, "[2]": {"tested_on": "sarcoma 180 tumour cells, cyclic AMP", "assay": "Level of cyclic AMP in tumour cells of sarcoma 180", "type": "cell-based, mouse", "conditions": "room temperature, 5 min", "description": "The present substance was added to 100 μl of the ascites-type tumour taken from the abdominal cavity of sarcoma 180-bearing mice to be a predetermined concentration, in this case, Specimen No. 7, and the mixture was incubated at room temperature for 5 min. After incubation, the culture was boiled, homogenized and centrifugated to obtain a supernatant liquid. The thus obtained supernatant liquid was subjected to the determination of cyclic AMP by the method of Gilman. […] The participation of the present substance in the metabolism of PGs is presumed also from this fact."}, "[3]": {"tested_on": "HeLa S3 cultured cells of human uterine cancer", "assay": "PGE in culture medium of human uterine cancer cells", "type": "cell-based", "conditions": "for Concentration of PGE after culture: 2 days, control 312; for Change of Concentration of PGE during culture: control +120", "description": "To each 10 ml of a culture medium prepared by adding 10% bovine foetal serum and one of the present substance, Specimen No. 7, at a concentration of 0 (control), 10, 100, 500, 1,000 or 5,000 μg/ml to Eagle's culture medium and placed in a polystyrene flask of 75 cm^2 in bottom surface, HeLa S3 cultured cells of human uterine cancer were inoculated at a rate of 5×10^5 cells/flask and cultured at 37° C. for 2 days under a mixed atmosphere of 5% by volume of gaseous carbon dioxide and 95% by volume of air. After the incubation was over, the whole cultured medium was centrifugated at a temperature of 4° C. at 1,500 rpm to obtain a supernatant liquid of the cultured medium. The content of PGE in the supernatant liquid was determined by ^3 H-Prostaglandin E Radioimmunoassay Kit."}, "sarcoma 180": {"tested_on": "sarcoma 180", "assay": "Translocation of dye-staff to sarcoma 180 (visual)", "type": "in vivo, ICR mouse", "conditions": "1000 mg/kg p.o. once", "description": "On the axillary part of an ICR mouse, 10^6 cells of sarcoma 180 were subcutaneously transplanted. While feeding the both animals, the present substance, Specimen No. 7, was forcibly administered orally once at a rate of 1000 mg/kg on 16th day of the transplantation and an aqueous 2% solution of Lissamine Green (a dye-staff manufactured by Imperial Chem. Ind. Co.) was injected into the caudal vein of the animal at a rate of 1 ml for a rat and 0.5 ml for a mouse.\nAfter one hour of the injection, the animal was sacrificed to extirpate the proliferated tumour. The tumour of the rat was finely cut and homogenized with an aqueous 50% solution of ethanol. After diluting the homogenate with an addition of the solution to a total volume of 50 ml, the liquid was centrifugated for 15 min at 1000 rpm to separate the supernatant liquid. The content of the dye-staff was determined on the supernatant liquid itself or after dilution by spectrophotometry using its absorption maximum of 630 nm."}, "MH-134 tumor": {"tested_on": "MH-134 tumor", "assay": "Preventing the metastasis of a transplanted tumour", "type": "in vivo, C3H/He mouse", "conditions": "for Number of metastatic lesion: not administered 4.5", "description": "Cells of MH-134 tumor were transplanted to a C3 H/He mouse from its caudal vein at a rate of 2×10^6 cells/animal. The present substance, Specimen No. 7, was administered to the mouse respectively, 6, 3 and one hours before, and 1, 3 and 6 hours after the transplantation once at a rate of 1000 mg/kg forcibly p.o.\nThe mouse was sacrificed on 14th day of the transplantation to extirpate the lungs to examine the number of the metastatic lesion."}, "Adenocarcinoma 755": {"tested_on": "Adenocarcinoma 755", "assay": "PGE in tumour of adenocarcinoma 755 and its proliferation", "type": "in vivo, female C57BL/6 mouse", "conditions": "1 g/kg/day oral", "description": "Tumour cells of Adenocarcinoma 755 were transplanted subcutaneously to groups of female C57BL/6 mouse of after 8 weeks of birth and while feeding the mice, the present substance, Specimen No. 7, was orally administered every day from the next day of transplantation at a rate of 1 g/kg/day. The mice were sacrificed with ether on 7th or 14th day of transplantation to extirpate the tumour. The thus extirpated tumour was treated by the same procedures as in Example 11 to determine the content of PGE in the tumour."}}}
{"smiles": "O=C(O)c1ccc(NC2OC[C@@H](O)[C@H](O)[C@H]2O)cc1", "note": "(stereo partly drawn) [Specimen No. 7, Sodium p-aminobenzoate-N--D-xyloside]", "values": [{"measurement": "Weight of tumour tissue", "setting": "Ehrlich cancer cells; control 1.30", "result": 0.75, "unit": "g"}, {"measurement": "Content of PGE in the tumour tissue", "setting": "Ehrlich cancer cells; control 1.77", "result": 3.98, "unit": "ng/g"}, {"measurement": "level of 6-keto PGF1 in the blood of cancer-bearing rat (FIG. 14)", "setting": "[1]", "result": "almost same as in normal rat"}, {"measurement": "level of cyclic AMP in tumour cells (FIG. 10)", "setting": "[2]", "result": "raising the level of cyclic AMP in the tumour cells of sarcoma 180"}, {"measurement": "Concentration of PGE after culture", "setting": "[3]; 10 μg/ml", "result": 40, "unit": "pg/mL"}, {"measurement": "Change of Concentration of PGE during culture", "setting": "[3]; 10 μg/ml", "result": -152, "unit": "pg/mL"}, {"measurement": "Concentration of PGE after culture", "setting": "[3]; 100 μg/ml", "result": 80, "unit": "pg/mL"}, {"measurement": "Change of Concentration of PGE during culture", "setting": "[3]; 100 μg/ml", "result": -112, "unit": "pg/mL"}, {"measurement": "Concentration of PGE after culture", "setting": "[3]; 500 μg/ml", "result": 48, "unit": "pg/mL"}, {"measurement": "Change of Concentration of PGE during culture", "setting": "[3]; 500 μg/ml", "result": -144, "unit": "pg/mL"}, {"measurement": "Concentration of PGE after culture", "setting": "[3]; 1000 μg/ml", "result": 25, "unit": "pg/mL"}, {"measurement": "Change of Concentration of PGE during culture", "setting": "[3]; 1000 μg/ml", "result": -167, "unit": "pg/mL"}, {"measurement": "Concentration of PGE after culture", "setting": "[3]; 5000 μg/ml", "result": 25, "unit": "pg/mL"}, {"measurement": "Change of Concentration of PGE during culture", "setting": "[3]; 5000 μg/ml", "result": -167, "unit": "pg/mL"}, {"measurement": "sedimentation of the dye-staff in the central part of the tumour (visual)", "setting": "sarcoma 180", "result": "remarkable sedimentation of the dye-staff in the central part of the tumour"}, {"measurement": "Rate of positive metastasis", "setting": "MH-134 tumor; 1000 mg/kg p.o. 1 hour after, printed 7/10", "result": 70, "unit": "%"}, {"measurement": "Rate of positive metastasis", "setting": "MH-134 tumor; 1000 mg/kg p.o. 1 hour before, printed 7/9", "result": 77.8, "unit": "%"}, {"measurement": "Rate of positive metastasis", "setting": "MH-134 tumor; 1000 mg/kg p.o. 3 hours after, printed 9/10", "result": 90, "unit": "%"}, {"measurement": "Rate of positive metastasis", "setting": "MH-134 tumor; 1000 mg/kg p.o. 3 hours before, printed 8/9", "result": 88.9, "unit": "%"}, {"measurement": "Rate of positive metastasis", "setting": "MH-134 tumor; 1000 mg/kg p.o. 6 hours after, printed 10/10", "result": 100, "unit": "%"}, {"measurement": "Rate of positive metastasis", "setting": "MH-134 tumor; 1000 mg/kg p.o. 6 hours before transplantation, printed 10/10", "result": 100, "unit": "%"}, {"measurement": "Number of metastatic lesion", "setting": "MH-134 tumor; 1 hour after", "result": 2.6}, {"measurement": "Number of metastatic lesion", "setting": "MH-134 tumor; 1 hour before", "result": 2.2}, {"measurement": "Number of metastatic lesion", "setting": "MH-134 tumor; 3 hours after", "result": 3.0}, {"measurement": "Number of metastatic lesion", "setting": "MH-134 tumor; 3 hours before", "result": 1.9}, {"measurement": "Number of metastatic lesion", "setting": "MH-134 tumor; 6 hours after", "result": 3.5}, {"measurement": "Number of metastatic lesion", "setting": "MH-134 tumor; 6 hours before", "result": 2.3}, {"measurement": "Content of PGE in tumour", "setting": "Adenocarcinoma 755; 7th day, control 0.67", "result": 2.83, "unit": "ng/g"}, {"measurement": "Weight of tumour", "setting": "Adenocarcinoma 755; 7th day, control 1.34", "result": 1.04, "unit": "g"}, {"measurement": "Content of PGE in tumour", "setting": "Adenocarcinoma 755; 14th day, control 0.34", "result": 1.15, "unit": "ng/g"}, {"measurement": "Weight of tumour", "setting": "Adenocarcinoma 755; 14th day, control 4.01", "result": 3.10, "unit": "g"}]}
